Numbers after ± are expanded uncertainties.
Conditions: 303.15 K, Liquid, Vibrating tube method

CCCCCCCC(=O)OCC(COC(=O)CCCCCCC)(COC(=O)CCCCCCC)COC(=O)CCCCCCC [pentaerythritol tetraoctanoate]
Conditions	mass density [kg/m3]
7240.6 kPa	959.8 ± 1.2
7273.2 kPa	959.8 ± 1.2
7299.8 kPa	960 ± 1.2
7389.7 kPa	960 ± 1.2
7422.6 kPa	959.9 ± 1.2
7449.6 kPa	959.9 ± 1.2
7483.3 kPa	960 ± 1.2
7511.3 kPa	960 ± 1.2
7544.9 kPa	960 ± 1.2
7573.7 kPa	960.1 ± 1.2
7608.5 kPa	960.1 ± 1.2
7643.5 kPa	960.1 ± 1.2
7673.8 kPa	960.1 ± 1.2
7703.3 kPa	960.1 ± 1.2
7739.3 kPa	960.2 ± 1.2
7769.3 kPa	960.2 ± 1.2
7806.2 kPa	960.1 ± 1.2
7836.8 kPa	960.2 ± 1.2
7874 kPa	960.2 ± 1.2
7904.9 kPa	960.1 ± 1.2
7943.2 kPa	960.2 ± 1.2
8013.8 kPa	960.3 ± 1.2
8160.1 kPa	960.4 ± 1.2
8194.2 kPa	960.5 ± 1.2
8236.1 kPa	960.4 ± 1.2
8272 kPa	960.5 ± 1.2
8310.6 kPa	960.5 ± 1.2
8341.7 kPa	960.5 ± 1.2
8372.2 kPa	960.5 ± 1.2
8402.7 kPa	960.5 ± 1.2
8428.6 kPa	960.5 ± 1.2
8458.8 kPa	960.7 ± 1.2
8489.8 kPa	960.6 ± 1.2
8521.4 kPa	960.7 ± 1.2
8548.1 kPa	960.7 ± 1.2
8580.2 kPa	960.7 ± 1.2
8612.1 kPa	960.7 ± 1.2
8643.8 kPa	960.7 ± 1.2
8676.1 kPa	960.8 ± 1.2
8703.6 kPa	960.8 ± 1.2
8736.1 kPa	960.7 ± 1.2
8769.5 kPa	960.9 ± 1.2
8802.3 kPa	960.8 ± 1.2
8866 kPa	960.8 ± 1.2
8901.6 kPa	960.9 ± 1.2
8936.7 kPa	960.9 ± 1.2
8961.2 kPa	960.8 ± 1.2
8990.2 kPa	960.9 ± 1.2
9019.5 kPa	960.9 ± 1.2
9048.8 kPa	960.9 ± 1.2
9078.2 kPa	961 ± 1.2
9103.3 kPa	961 ± 1.2
9132.9 kPa	961.1 ± 1.2
9163.2 kPa	961 ± 1.2
9193.9 kPa	961.1 ± 1.2
9224.2 kPa	961 ± 1.2
9250.4 kPa	961.1 ± 1.2
9281.3 kPa	961 ± 1.2
9371.4 kPa	961.1 ± 1.2
9403.3 kPa	961.2 ± 1.2
9435.5 kPa	961.1 ± 1.2
9467.7 kPa	961.2 ± 1.2
9500.5 kPa	961.2 ± 1.2
9527.3 kPa	961.2 ± 1.2
9559.2 kPa	961.2 ± 1.2
9592.8 kPa	961.2 ± 1.2
9618.8 kPa	961.3 ± 1.2
9652.6 kPa	961.3 ± 1.2
9687 kPa	961.4 ± 1.2
9722.3 kPa	961.4 ± 1.2
9750.6 kPa	961.4 ± 1.2
9785.2 kPa	961.3 ± 1.2
9821.4 kPa	961.4 ± 1.2
9856.8 kPa	961.4 ± 1.2
9893.5 kPa	961.5 ± 1.2
9924.2 kPa	961.5 ± 1.2
9961.2 kPa	961.5 ± 1.2
9999 kPa	961.5 ± 1.2
10037 kPa	961.6 ± 1.2
10067 kPa	961.6 ± 1.2
10092 kPa	961.6 ± 1.2
10122 kPa	961.6 ± 1.2
10152 kPa	961.6 ± 1.2
10177 kPa	961.6 ± 1.2
10208 kPa	961.5 ± 1.2
10238 kPa	961.7 ± 1.2
10270 kPa	961.6 ± 1.2
10302 kPa	961.8 ± 1.2
10334 kPa	961.7 ± 1.2
10357 kPa	961.7 ± 1.2
10380 kPa	961.8 ± 1.2
10403 kPa	961.6 ± 1.2
10423 kPa	961.7 ± 1.2
10447 kPa	961.7 ± 1.2
10471 kPa	961.7 ± 1.2
10491 kPa	961.8 ± 1.2
10514 kPa	961.8 ± 1.2
10538 kPa	961.9 ± 1.2
10562 kPa	961.9 ± 1.2
10582 kPa	961.9 ± 1.2
10607 kPa	961.9 ± 1.2
10631 kPa	961.9 ± 1.2
10656 kPa	961.9 ± 1.2
10680 kPa	961.9 ± 1.2
10702 kPa	962 ± 1.2
10727 kPa	962 ± 1.2
10751 kPa	961.9 ± 1.2
10779 kPa	961.9 ± 1.2
10801 kPa	961.9 ± 1.2
10826 kPa	962 ± 1.2
10852 kPa	962.1 ± 1.2
10878 kPa	962.1 ± 1.2
10899 kPa	962 ± 1.2
10924 kPa	962.1 ± 1.2
10950 kPa	962.1 ± 1.2
10975 kPa	962.1 ± 1.2
10996 kPa	962.2 ± 1.2
11075 kPa	962.1 ± 1.2
11103 kPa	962.2 ± 1.2
11125 kPa	962.2 ± 1.2
11152 kPa	962.2 ± 1.2
11180 kPa	962.2 ± 1.2
11202 kPa	962.2 ± 1.2
11229 kPa	962.4 ± 1.2
11257 kPa	962.2 ± 1.2
11285 kPa	962.3 ± 1.2
11313 kPa	962.3 ± 1.2
11337 kPa	962.3 ± 1.2
11365 kPa	962.4 ± 1.2
11393 kPa	962.3 ± 1.2
11422 kPa	962.3 ± 1.2
11446 kPa	962.4 ± 1.2
11475 kPa	962.3 ± 1.2
11504 kPa	962.4 ± 1.2
11533 kPa	962.4 ± 1.2
11562 kPa	962.4 ± 1.2
11587 kPa	962.5 ± 1.2
11616 kPa	962.5 ± 1.2
11645 kPa	962.6 ± 1.2
11669 kPa	962.5 ± 1.2
11699 kPa	962.6 ± 1.2
11729 kPa	962.4 ± 1.2
11760 kPa	962.6 ± 1.2
11790 kPa	962.6 ± 1.2
11816 kPa	962.6 ± 1.2
11847 kPa	962.6 ± 1.2
11878 kPa	962.7 ± 1.2
11909 kPa	962.6 ± 1.2

Reference: the NIST ThermoML archive (doi:10.1021/je060271a)
